In patent US20250059203A1, “USE OF ARISTOLOXAZINE C HAVING ANTICANCER ACTIVITY” (KOREA INSTITUTE OF ORIENTAL MEDICINE, priority 2021, published 2025):

Legend:
HCT116 (colon cancer) = test: MTT assay, HCT116 cells; type: cell-based, human
Method: (§1) In order to evaluate the anticancer activity of aristoloxazine isolated in Example 1, the cytotoxic activity against 14 human cancer cell lines including SKMEL5 (melanoma), A431 (non-melanoma skin), PC3 (prostate), A549 (lung), HT1080 (fibrosarcoma), OVCAR3 (ovary), HCT116 (colon), AGS (stomach), HepG2 (liver), MCF7 (breast cancer), K562 (leukemia), U-87 (glioma), ACHN (renal adenocarcinoma) and Caki (clear cell kidney cancer) was evaluated.
(§2) Cells were seeded (1 to 2.5×10^3 cells per well) in 96-well plates and then allowed to settle overnight. Next, the cells were treated with different doses of the compound for 24 hours, 48 hours or 72 hours in a 37° C. CO2 incubator, and 20 μL of MTT ((4,5-dimethylthiazol-2-yl)-2,5-diphenyltetrazolium bromide reagent (Sigma-Aldrich, Inc., St. Louis, MO, USA) was added to each well. After 1 to 2 hours, the medium was discarded, and 100 μL of DMSO (dimethyl sulfoxide, VWR Life Science, Ohio, USA) was added, and then, absorbance was measured at 570 nm by using a Multiskan Skyhigh microplate spectrophotometer (Thermo Scientific, Singapore). 5-FU was used as a positive control. The extract in Table 2 was a 70% ethanol Asarum heterotropoides root extract obtained in the process of preparing the Asarum heterotropoides root fraction of Example 1-2.

U-87 (glioma) = test: MTT assay, U-87 cells; type: cell-based, human; details: U-87, 72 h
Method: as §1, §2

A549 (lung cancer) = test: MTT assay, A549 cells; type: cell-based, human; details: A549, 72 h
Method: as §1, §2

OVCAR3 (ovarian cancer) = test: MTT assay, OVCAR3 cells; type: cell-based; details: Homo sapiens, OVCAR-3, OVCAR3, 72 h
Method: as §1, §2

[1] = tested on: 14 human cancer cell lines; test: MTT assay, panel of all cancer cell lines tested; type: cell-based; details: span over all cancer cell lines tested, read-out: IC50 values, cytotoxicity against all cells that were tested
Method: as §1, §2

SKMEL5 (melanoma) = test: MTT assay, SKMEL5 cells; type: cell-based, human
Method: as §1, §2

AGS (stomach cancer) = test: MTT assay, AGS cells; type: cell-based, human; details: 72 h
Method: as §1, §2

PC3 (prostate cancer) = test: MTT assay, PC3 cells; type: cell-based; details: Homo sapiens, PC-3, PC3, 72 h
Method: as §1, §2

HepG2 (liver cancer) = test: MTT assay, HepG2 cells; type: cell-based; details: Homo sapiens, HepG2, 72 h
Method: as §1, §2

[2] = tested on: ACHN (renal adenocarcinoma); test: MTT assay, ACHN cells; type: cell-based, human; details: 72 h
Method: as §1, §2

[3] = tested on: Caki (clear cell kidney cancer); test: MTT assay, Caki cells; type: cell-based, human; details: 72 h
Method: as §1, §2

[4] = tested on: A431 (non-melanoma skin cancer); test: MTT assay, A431 cells; type: cell-based, human
Method: as §1, §2

K562 (leukemia) = test: MTT assay, K562 cells; type: cell-based, human; details: K562, 72 h
Method: as §1, §2

MCF7 (breast cancer) = test: MTT assay, MCF7 cells; type: cell-based; details: Homo sapiens, MCF7, 72 h
Method: as §1, §2

HT1080 (fibrosarcoma) = test: MTT assay, HT1080 cells; type: cell-based, human
Method: as §1, §2

Compound `COc1cccc2c1[C@H](SCC(N)=O)c1noc(=O)c3cc4c(c-2c13)OCO4` [Aristoloxazine C] has an IC50 (HCT116 (colon cancer); Homo sapiens, HCT-116, HCT116, 72 h) of 29.3 ± 0.2 nM, an IC50 (U-87 (glioma); Homo sapiens, U-87 MG) of 57.8 ± 5.5 nM and an IC50 (A549 (lung cancer); Homo sapiens) of 25.7 ± 0.7 nM. The IC50 (OVCAR3 (ovarian cancer)) was 374 ± 12 nM, the IC50 [1] was 17.8 to 374 nM and the IC50 (SKMEL5 (melanoma); Homo sapiens, SK-MEL-5, SKMEL5, 72 h) was 72.1 ± 0.4 nM. The IC50 (AGS (stomach cancer); Homo sapiens) was 22.1 ± 0.8 nM, the IC50 (PC3 (prostate cancer)) was 84.3 ± 2 nM and the IC50 (HepG2 (liver cancer)) was 149.2 ± 0.7 nM. It also gave an IC50 ([2]; Homo sapiens) of 17.8 ± 0.1 nM, an IC50 ([3]; Homo sapiens) of 65.4 ± 2.9 nM and an IC50 ([4]; Homo sapiens, A-431, A431, 72 h) of 85.7 ± 2.5 nM. For the same compound, the IC50 (K562 (leukemia); Homo sapiens) was 78.6 ± 2 nM, the IC50 (MCF7 (breast cancer)) was 46.4 ± 2 nM and the IC50 (HT1080 (fibrosarcoma); Homo sapiens, HT-1080, HT1080, 72 h) was 143 ± 2.3 nM.

`O=c1[nH]cc(F)c(=O)[nH]1` [Compound 5-FU, 5-FU, reference compound] gave an IC50 (HCT116 (colon cancer); HCT116, 72 h) of 3500 ± 100 nM, an IC50 (U-87 (glioma)) of 9000 ± 200 nM and an IC50 (A549 (lung cancer)) of 2400 ± 100 nM. The IC50 (SKMEL5 (melanoma); SKMEL5, 72 h) was 8400 ± 700 nM, the IC50 (AGS (stomach cancer)) was 3200 ± 100 nM and the IC50 [2] was 9100 ± 2900 nM. It also gave an IC50 [3] of 9900 ± 200 nM, an IC50 ([4]; A431, 72 h) of 1000 ± 30 nM and an IC50 (K562 (leukemia)) of 6700 ± 200 nM. For the same compound, the IC50 (HT1080 (fibrosarcoma); HT1080, 72 h) was 4900 ± 100 nM.
